Laboratory results taken from patent US6699989B1, “Antiviral and antimicrobial guanidine or biguanidine derivatives” (priority 2000, dated 2004).
pIC50: −log10 of the molar value. Values after ≈ are worked out from the molar mass of the structure shown. Read-outs that look alike come from different tables or passages of the source.

Experiments:
HIV-1 [1] = conditions: CEM-SS, HIV1 RF
Description: This is a cytoprotection assay that uses the T-lymphoblastoid tumor cell line CEM-SS and laboratory adapted strains of HIV-1. Upon infection with HIV, the CEM-SS cells form syncytia and eventually die, producing large amounts of progeny virus over the course of 4-6 days at the standard multiplicity of infection (0.01). The antiviral assay measures the ability of a given compound to inhibit the HIV-induced cell killing. […] The activity of the compound is evaluated by measuring cell viability at 6 days post-infection and comparing the viability to that obtained in cell control (cells only), virus control (cells and virus only) and toxicity control (cells and compound only) wells.
Efficacy of the compound in cell culture is measured by increased cell viability in CEM-SS assays or reduction in virus production in PBMC assays. The data obtained yields a dose response curve which can be evaluated to determine doses which yield 25%, 50% and 95% protection from HIV-induced cell killing or virus production. […] These concentrations are reported as the TC25, TC50 and TC95 values. The ratio of toxicity to efficacy constitutes the therapeutic index TC50/IC50.
CEM-SS cells assay measures the ability of the compound to inhibit HIV induced cell killing. The cells are stained at 6 days post-infection with the tetrazolium dye XTT which is converted to a colored formazan product by the mitochondria of viable cells. Protection from cell killing afforded by the test compound is measured by comparison to both cell controls and virus controls. Cell killing in this system is directly related to the amount of virus produced by the infected cells and XTT-formazan production is proportional to the number of viable cells in each well. Toxicity of the compound to the target cells is measured in parallel.
CEM-SS cells (or other established human cell line used in these experiments) were passaged in T-150 flasks for use in the assay. On the day preceding the assay, the cells were split 1:2 to assure they would be in an exponential growth phase at time of infection. On the day of assay the cells were washed twice with tissue culture medium and resuspended in fresh tissue culture medium. Total cell and viability counting was performed using hemacytometer and trypan blue dye exclusion. Cell viability was greater than 95% for the cells to be utilized in the assay. The cells were pelleted and resuspended at 2.5×10^4 cells per ml in tissue culture medium. Cells were added to the drug-containing plates in a volume of 50 μl.
A pretitered aliquot of virus was removed from the freezer (−80° C.) and allowed to thaw slowly to room temperature in a biological safety cabinet. The virus was resuspended and diluted into tissue culture medium such that the amount of virus added to each well in a volume of 50 μl will be the amount determined to give complete cell killing at 6 days post-infection. In general the virus pools produced with the IIIB isolate of HIV required the addition of 5 μl of virus per well.
Each plate contained cell control wells (cells only), virus control wells (cells plus virus), drug toxicity control wells (cells plus drug only), drug colorimetric control wells (drug only) as well as experimental wells (drug plus cells plus virus).
After 6 days of incubation at 37° C. in a 5% CO2 incubator the test plates were analyzed by staining with the tetrazolium dye XTT. XTT-tetrazolium is metabolized by the mitochondrial enzymes of metabolically active cells to a soluble formazan product, allowing the rapid quantitative analysis of the inhibition of HIV-induced cell killing by anti-HIV test substances. On day 6 post-infection plates were removed from the incubator and observed.

CEM-SS cells = assay type: cell-based; conditions: CEM-SS
HIV-1 [2] = experiment: PBMC assay, virus production by reverse transcriptase activity; assay type: cell-based; conditions: ROJO in PBMC
Text: Method 2: PBMC Assay Method (Peripheral Blood Mononuclear cell)—Description
This assay addresses the issue of providing a rationale for further evaluation of the compound by providing evidence of in vitro anti-HIV activity against a low passage clinical strain of HIV-1. These fresh human peripheral blood mononuclear cell assays use fresh human cells obtained from the American Red Cross from uninfected, normal human donors. Mononuclear cells from these blood samples are isolated by centrifugation and infected with low passage clinical strains of HIV-1 which have been obtained by culture of blood cells from HIV-infected patients with uninfected PBMCs. Since the PBMCs are not killed by HIV infection, endpoint quantification is performed by measurement of virus production in each well by reverse transcriptase assay or p24 ELISA. These assays provide evidence that the test compounds will have efficacy against viruses, which will likely be encountered in patients without genetic changes, introduced by passage in cell culture.
Thus, PBMCs assay measures the amount of virus released from the infected cells into the tissue culture supernatant. The activity of the test compound is measured by its ability to reduce the level of virus production relative to the virus controls (cells+virus with no added compound). In PBMC culture we use reverse transcriptase activity in the supernatant to quantify the amount of virus production from the infected cells. Endpoint quantification is performed at 6 days post-infection.
Fresh human peripheral blood lymphocytes (PBL) are isolated from voluntary Red Cross donors, seronegative for HIV and HBV. Leukophoresed blood is diluted 1:1 with Dulbecco's phosphate buffered saline (PBS), layered over 14 mL of Ficoll-Hypaque density gradient in a 50 mL centrifuge tube. Tubes are then centrifuged for 30 minutes at 600×g. Banded PBLs are gently aspirated from the resulting interface and subsequently washed 2× with PBS by low speed centrifugation. […] After incubation, PBLs are centrifuged and reset in RPMI 1640 with 15% FBS, 2 mM L-glutamine, 100 U/mL. penicillin, 100 ug/mL streptomycin, 10 ug/mL gentamycin, and 20 U/mL recombinant human IL-2. PBLs are maintained in this medium at a concentration of 1-2×10E6/mL with bi-weekly medium changes, until use in assay protocol. For the PBL assay, PHA-P stimulated cells from at least two normal donors are pooled, set in fresh medium at 2×10E6/mL and plated in the interior wells of a 96 well round bottom microplate at 50 μL/well. Test drug dilutions are prepared at a 2× concentration in microtiter tubes and 100 μL of each concentration is placed in appropriate wells in a standard format. 50 μL of a predetermined dilution of virus stock is placed in each test well. Wells with cells and virus alone are used for virus control. Separate plates are identically set without virus for drug cytotoxicity studies using an XTT assay system.
In the standard PBL assay (MOI: 0.2), the assay was ended on day 7 following collection of cell free supernatant samples for reverse transcriptase activity assay. In the low MOI PBL assay (MOI: 0.02), supernatant samples were collected on day 6, day 11, and day 14 post-infection and analyzed for RT activity.

PBMCs = experiment: Toxicity to PBMC, XTT; assay type: cell-based, human
[3] = tested on: Proteus mirabilis ATCC 9921; experiment: Microdilution broth MIC assay; assay type: cell-based; conditions: ATCC9921, Pm, Mueller Hinton broth, about 17 hr
Description: (§1) Test organisms. The test organisms are listed in Table 5 along with their source. Prior to assay, overnight bacterial slant cultures were used to inoculate Mueller Hinton broth followed by incubation for 5-7 hr. Each culture was then standardized turbidimetrically to a viable count of about 10^6 colony forming units/ml and used to inoculate the mirotiter assay plates. The viable count after addition to the plates was about 5×10^5 CFU/ml.
(§2) Experimental design. The MIC of the test compounds for the bacterial strains was determined with a microdilution broth assay in 96 well microtiter plates. The test compounds were dissolved in DMSO and then diluted 10-fold in assay medium (Mueller Hinton broth) to obtain final concentrations of 0.128, 1.28, 12.8, and 128 μg/ml. A viability control containing DMSO, diluted in the same manner as the test compounds, was used to confirm that the DMSO was not inhibitory by itself. Trimethoprim (TMP) was used as a positive drug control. The assay plates were incubated at 37° C. for about 17 hr and each assay well observed visually for growth. The MIC was determined at the lowest concentration of drug which inhibited growth. [drawing 32]

[4] = tested on: Staphylococcus aureus ATCC 6538; experiment: Microdilution broth MIC assay; assay type: cell-based; conditions: ATCC6538, Sa, Mueller Hinton broth, about 17 hr
Description: as §1, §2

[5] = tested on: Staphylococcus epidermidis ATCC 35984; experiment: Microdilution broth MIC assay; assay type: cell-based; conditions: ATCC35984, Se, Mueller Hinton broth, about 17 hr
Description: as §1, §2

[6] = tested on: Pseudomonas aeruginosa ATCC 15442; experiment: Microdilution broth MIC assay; assay type: cell-based; conditions: ATCC15442, Pa, Mueller Hinton broth, about 17 hr
Description: as §1, §2

[7] = tested on: Klebsiella pneumoniae ATCC 4352; experiment: Microdilution broth MIC assay; assay type: cell-based; conditions: ATCC4352, Kp, Mueller Hinton broth, about 17 hr
Description: as §1, §2

[8] = tested on: Escherichia coli ATCC 11229; experiment: Microdilution broth MIC assay; assay type: cell-based; conditions: ATCC11229, Ec, Mueller Hinton broth, about 17 hr
Description: as §1, §2

[9] = tested on: Streptococcus pneumoniae ATCC 6303; experiment: Microdilution broth MIC assay; assay type: cell-based; conditions: ATCC6303, Sp, Mueller Hinton broth, about 17 hr
Description: as §1, §2

## Nc1ccn([C@H]2CC[C@@H](CO)O2)c(=O)n1 [DDC, di-deoxycytosine, reference compound]
HIV-1 [1]; 0.00003 μM
  % RED. IN VIRAL CPE: 1%
  ANTIVIRAL TEST VALUES MEAN O.D.: 0.014 O.D.
HIV-1 [1]; 0.0001 μM
  % RED. IN VIRAL CPE: 5%
  ANTIVIRAL TEST VALUES MEAN O.D.: 0.062 O.D.
HIV-1 [1]; 0.00032 μM
  % RED. IN VIRAL CPE: 6%
  ANTIVIRAL TEST VALUES MEAN O.D.: 0.080 O.D.
HIV-1 [1]; 0.001 μM
  % RED. IN VIRAL CPE: 4%
  ANTIVIRAL TEST VALUES MEAN O.D.: 0.057 O.D.
HIV-1 [1]; 0.0032 μM
  % RED. IN VIRAL CPE: 8%
  ANTIVIRAL TEST VALUES MEAN O.D.: 0.109 O.D.
HIV-1 [1]; 0.01 μM
  % RED. IN VIRAL CPE: 9%
  ANTIVIRAL TEST VALUES MEAN O.D.: 0.119 O.D.
HIV-1 [1]; 0.032 μM
  % RED. IN VIRAL CPE: 75%
  ANTIVIRAL TEST VALUES MEAN O.D.: 1.019 O.D.
HIV-1 [1]; 0.1 μM
  % RED. IN VIRAL CPE: 81%
  ANTIVIRAL TEST VALUES MEAN O.D.: 1.099 O.D.
HIV-1 [1]; 0.32 μM
  % RED. IN VIRAL CPE: 92%
  ANTIVIRAL TEST VALUES MEAN O.D.: 1.246 O.D.
HIV-1 [1]; 1 μM
  % RED. IN VIRAL CPE: 86%
  ANTIVIRAL TEST VALUES MEAN O.D.: 1.166 O.D.
HIV-1 [1]; 3.2 μM
  % RED. IN VIRAL CPE: 100%
  ANTIVIRAL TEST VALUES MEAN O.D.: 1.754 O.D.
HIV-1 [1]; 10 μM
  % RED. IN VIRAL CPE: 100%
  ANTIVIRAL TEST VALUES MEAN O.D.: 1.687 O.D.
HIV-1 [1]
  IC 25%: 0.01 CM
  IC 95%: 2.11 CM
CEM-SS cells; 0.00003 μM
  % CELL VIABILITY: 100%
  CYTOTOXICITY TEST VALUES MEAN O.D.: 1.496 O.D.
CEM-SS cells; 0.0001 μM
  % CELL VIABILITY: 93%
  CYTOTOXICITY TEST VALUES MEAN O.D.: 1.346 O.D.
CEM-SS cells; 0.00032 μM
  % CELL VIABILITY: 99%
  CYTOTOXICITY TEST VALUES MEAN O.D.: 1.428 O.D.
CEM-SS cells; 0.001 μM
  % CELL VIABILITY: 100%
  CYTOTOXICITY TEST VALUES MEAN O.D.: 1.476 O.D.
CEM-SS cells; 0.0032 μM
  % CELL VIABILITY: 100%
  CYTOTOXICITY TEST VALUES MEAN O.D.: 1.450 O.D.
CEM-SS cells; 0.01 μM
  % CELL VIABILITY: 100%
  CYTOTOXICITY TEST VALUES MEAN O.D.: 1.550 O.D.
CEM-SS cells; 0.032 μM
  % CELL VIABILITY: 100%
  CYTOTOXICITY TEST VALUES MEAN O.D.: 1.658 O.D.
CEM-SS cells; 0.1 μM
  % CELL VIABILITY: 96%
  CYTOTOXICITY TEST VALUES MEAN O.D.: 1.391 O.D.
CEM-SS cells; 0.32 μM
  % CELL VIABILITY: 97%
  CYTOTOXICITY TEST VALUES MEAN O.D.: 1.400 O.D.
CEM-SS cells; 1 μM
  % CELL VIABILITY: 100%
  CYTOTOXICITY TEST VALUES MEAN O.D.: 1.469 O.D.
CEM-SS cells; 3.2 μM
  % CELL VIABILITY: 100%
  CYTOTOXICITY TEST VALUES MEAN O.D.: 1.826 O.D.
CEM-SS cells; 10 μM
  % CELL VIABILITY: 100%
  CYTOTOXICITY TEST VALUES MEAN O.D.: 2.064 O.D.
CEM-SS cells; XTT
  TC 25%: >10.00 CM
  TC 50%: >10.00 CM
  TC 95%: >10.00 CM

## Cc1cn([C@H]2C[C@H](N=[N+]=[N-])[C@@H](CO)O2)c(=O)[nH]c1=O [AZT, reference compound]
HIV-1 [2]; 0.0013 μM
  RT ACTIVITY % VC: 104.6%
  RT ACTIVITY MEAN: 7531.7 cpm
HIV-1 [2]; 0.013 μM
  RT ACTIVITY % VC: 77.3%
  RT ACTIVITY MEAN: 5566.3 cpm
HIV-1 [2]; 0.04 μM
  RT ACTIVITY % VC: 81.7%
  RT ACTIVITY MEAN: 5880.0 cpm
HIV-1 [2]; 0.13 μM
  RT ACTIVITY % VC: 32.3%
  RT ACTIVITY MEAN: 2397.0 cpm
HIV-1 [2]; 0.4 μM
  RT ACTIVITY % VC: 3.8%
  RT ACTIVITY MEAN: 274.0 cpm
HIV-1 [2]; 1.3 μM
  RT ACTIVITY % VC: 8.8%
  RT ACTIVITY MEAN: 88.0 cpm
HIV-1 [2]; 4 μM
  RT ACTIVITY % VC: 0.7%
  RT ACTIVITY MEAN: 48.3 cpm
HIV-1 [2]; RT activity, read-out: IC50
  pIC50: 7.00
PBMCs
  CC50: > 4 µM

## COc1cc(Cc2cnc(N)nc2N)cc(OC)c1OC [TMP, Trimethoprim, reference compound]
[3]
  MIC: 0.64 to 6.4 mg/L (≈ 2.2 to 22 µM)
[4]
  MIC: 0.064 to 0.64 mg/L (≈ 0.22 to 2.2 µM)
[5]
  MIC: > 64 mg/L
[6]
  MIC: > 64 mg/L
[7]
  MIC: 0.064 to 0.64 mg/L (≈ 0.22 to 2.2 µM)
[8]
  MIC: 0.064 to 0.64 mg/L (≈ 0.22 to 2.2 µM)
[9]
  MIC: 0.64 to 6.4 mg/L (≈ 2.2 to 22 µM)
